Test results as given in patent publication US10577367B2, “IRAK4 inhibiting agents” (BIOGEN MA INC., priority 2014, dated 2020).

Target: IRAK4 (Homo sapiens (Human), UniProt Q9NWZ3)
Experiment: IRAK-4 AlphaScreen biochemical kinase assay
Conditions: 1 nM IRAK4, 1 mM ATP, 3.5 h at RT
Procedure: The biochemical assay is in a AlphaScreen format. The kinase reaction is based on the IRAK-4 phosphorylation of a biotin labeled peptide. The phosphopeptide is incubated with anti-phosphothreonine antibody as well as streptavidin- and protein A-coated beads. Binding of the protein-A coated beads to the antibody and the streptavidin beads to the peptide, leads to an energy transfer from one bead to the other, ultimately producing a luminescent/fluorescent signal.
The compounds described herein were tested for in the above biochemical assay.

Sequence of IRAK4 (Q9NWZ3 whole entry, species assumed): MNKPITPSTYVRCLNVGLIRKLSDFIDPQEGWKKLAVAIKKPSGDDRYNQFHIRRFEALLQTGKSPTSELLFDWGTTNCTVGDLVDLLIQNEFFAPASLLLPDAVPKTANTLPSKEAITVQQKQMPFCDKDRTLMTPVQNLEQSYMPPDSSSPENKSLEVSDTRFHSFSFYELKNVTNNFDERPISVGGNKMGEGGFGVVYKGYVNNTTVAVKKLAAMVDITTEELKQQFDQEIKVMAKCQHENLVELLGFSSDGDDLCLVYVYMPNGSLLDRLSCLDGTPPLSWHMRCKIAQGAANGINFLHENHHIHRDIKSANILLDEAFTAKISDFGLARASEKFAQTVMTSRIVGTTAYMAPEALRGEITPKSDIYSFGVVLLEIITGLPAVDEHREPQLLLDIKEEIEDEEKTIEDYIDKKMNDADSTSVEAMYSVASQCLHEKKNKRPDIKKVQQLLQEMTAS

Row | IC50 [nM] | SMILES
1 | > 10000 | O=C1CCCc2ccc(-c3ccc4cnn(-c5cccc(C(F)(F)F)n5)c4c3)nc21 [Example 212, 2-(1-(6-(trifluoromethyl)pyridin-2-yl)-1H-indazol-6-yl)-6,7-dihydroquinolin-8(5H)-one]
2 | < 100 | CCC(N)c1cccc(-c2ccc3cnc(-c4cccc(C)n4)n3c2)n1 (stereo not drawn) [Example 275, 1-(6-(3-(6-methylpyridin-2-yl)imidazo[1,5-a]pyridin-6-yl)pyridin-2-yl)propan-1-amine]
3 | < 100 | CCCC(N)c1cccc(-c2ccc3cnc(-c4cccc(C)n4)n3c2)n1 (stereo not drawn) [Example 276, 1-(6-(3-(6-methylpyridin-2-yl)imidazo[1,5-a]pyridin-6-yl)pyridin-2-yl)butan-1-amine]
4 | < 100 | CCC[C@H](N)c1cccc(-c2cc(N3CCCCC3)c3cnn(-c4cccc(CO)n4)c3c2)n1 [Example 324, (S)-(6-(6-(6-(1-aminobutyl)pyridin-2-yl)-4-(piperidin-1-yl)-1H-indazol-1-yl)pyridin-2-yl)methanol]
5 | < 100 | CCC[C@H](N)c1cccc(-c2cc(C3=CCN(C)CC3)c3cnn(-c4cccc(CO)n4)c3c2)n1 [Example 423, (S)-(6-(6-(6-(1-aminobutyl)pyridin-2-yl)-4-(1-methyl-1,2,3,6-tetrahydropyridin-4-yl)-1H-indazol-1-yl)pyridin-2-yl)methanol]

Row | SMILES | IC50 [nM]
6 | N#Cc1cc(-c2cncc(NC(=O)C(F)(F)F)c2)cc2c1cnn2-c1cccc(C(F)(F)F)n1 [Example 208, N-(5-(4-cyano-1-(6-(trifluoromethyl)pyridin-2-yl)-1H-indazol-6-yl)pyridin-3-yl)-2,2,2-trifluoroacetamide] | > 10000
